Experimental data reported in US5990317A, “2-(1H-4(5)-imidazoyl) cyclopropyl compounds” (Gliatech, Inc., priority 1998, dated 1999).
Where a name gives a salt, the structure may show the parent alone.

These compounds were tested against Histamine H3 receptor (assay: In Vitro Histamine H3 Receptor Binding Analysis ([3H]-N-alpha-methylhistamine displacement, rat cortical membranes)). Conditions: [3H]-N-alpha-methylhistamine 0.8-1.2 nM, pH 7.4, 40 min, 25° C, read-out: Histamine H3 Receptor Binding Affinities, H3 Receptor Ki.
Experimental: Histamine H3 receptor affinity was determined in rat cortical membranes using the H3 selective agonist ligand, [^3 H]-N^α -methylhistamine (78.9 Ci/mole, DuPont NEN Research Products, Boston, Mass.) according to the method of West et al., (1990) Mol. Pharmacol. 38: 610-613 with modifications. Briefly, animals were sacrificed by decapitation and the cerebral cortex was rapidly removed. Rat cortices were mechanically homogenized with an Omni 1000 motor driven homogenizer in 10 volumes (wt/vol) of Krebs-Ringers Hepes buffer (pH 7.4) containing the following protease inhibitors: EDTA (10 mM), PMSF (0.1 mM), chymostatin (0.2 mg/50 mL) and leupeptin (0.2 mg/50 mL). The homogenate was centrifuged in a Sorvall at ~40,000×g for 30 min. The pellet was resuspended by mechanical homogenization in 25 mL water and lysed on ice for 30 min. The homogenate was recentrifuged and the membrane lysis was repeated. The membranes were recentrifuged and the final pellet was resuspended in 14 volumes of water to give approximately 200 μg protein/100 μl final concentration. The suspension was stored at -80° prior to use. Protein concentrations were determined by Coomassie Plus Protein Assay (Pierce, Rockford, Ill.).
Nonspecific binding (NSB) was accounted for by the inclusion of thioperamide (10 μM). Samples were incubated for 40 minutes at 25° C. The samples were filtered through glass fiber strips, pre-washed with 0.3% polyethyleneimine, using a Brandell cell harvester. The filters were rapidly washed three times with 4 ml of 25 mm Tris buffer containing 145 mM NaCl (pH 7.4, 4° C.). Filters were transferred to polyethylene mini-vials and counted in 3.5 ml of scintillation fluid (Ecolume, ICN Biomedicals, Inc.). […] Saturation and competition experiments were analyzed with the ReceptorFit saturation and competition curve fitting programs (Lundon Software, Ind., Cleveland, Ohio).

Structure (SMILES) | Ki
O=C(NCCCN1CCOCC1)[C@@H]1C[C@H]1c1c[nH]cn1 (relative stereo) [Example 4, (±)-trans-(2-imidazol-4-ylcyclopropyl)-N-(3-morpholin-4-ylpropyl)formamide] | 1400 ± 158 nM
C(=C\[C@@H]1C[C@H]1c1c[nH]cn1)/CCC1CCCCC1 (relative stereo) [Example 17, (±)-trans-4-(2-(4-cyclohexylbut-trans-1-enyl)cyclopropyl)imidazole] | 11 ± 1 nM
O=C(NCCc1c[nH]cn1)[C@@H]1C[C@H]1c1c[nH]cn1 (relative stereo) [Example 34, (±)-trans-(2-imidazol-4-ylcyclopropyl)-N-(2-imidazol-4-ylethyl)formamide] | 227 ± 26 nM
O=C(NCCC1=CCCCC1)[C@@H]1C[C@H]1c1c[nH]cn1 (relative stereo) [Example 31, N-[2-Cyclohex-1-enyl-ethyl]-3(R)-[1H-imidazol-4-yl]-2(R)-cyclopropanamide HCl salt and N-[2-Cyclohex-1-enyl-ethyl]-3(S)-[1H-imidazol-4-yl]-2(S)-cyclopropanamide HCl salt] | 294 ± 26 nM
c1nc([C@@H]2C[C@H]2COCCCC2CCCCC2)c[nH]1 (racemic) [Example 18, (±)-trans-(3-cyclohexylpropoxy)(2-imidazol-4-ylcyclopropyl)methane] | 240 ± 6 nM
O=C(NCCCc1ccccc1)[C@@H]1C[C@H]1c1c[nH]cn1 (relative stereo) [Example 33, (±)-trans-(2-imidazol-4-ylcyclopropyl)-N-(3-phenylpropyl)formamide] | 197 ± 23 nM
C(=CC1CC1c1c[nH]cn1)CCC1CCCCC1 [Example 25, (1S,2S)-trans-4-(2-(4-cyclohexylbut-trans-1-enyl)cyclopropyl)imidazole] | 56 ± 9 nM
O=C(NCC1CCCCC1)[C@H]1C[C@@H]1c1c[nH]cn1 [Example 2a] | 23 ± 1 nM
C(=CC1CC1c1c[nH]cn1)CCC1CCCCC1 [Example 24, (1S,2S)-trans-4-(2-(4-cyclohexylbut-cis-1-enyl)cyclopropyl)imidazole] | 108 ± 3.9 nM
O=C(Nc1ccccc1)[C@@H]1C[C@H]1c1c[nH]cn1 (relative stereo) [Example 5, N-(phenyl)-3-(1H-imidazol-4-yl)-trans-(2R,3R)-cyclopropanamide and N-(phenyl)-3-(1H-imidazol-4-yl)-trans-(2S,3S)-cyclopropanamide hydrochloride] | 267 ± 26 nM
C(=C/[C@@H]1C[C@H]1c1c[nH]cn1)/CCC1CCCCC1 (relative stereo) [Example 16, (±)-trans-4-(2-(4-cyclohexylbut-cis-1-enyl)cyclopropyl)imidazole] | 12.2 ± 1 nM
O=C(NCCCC1CCCCC1)C1CC1c1c[nH]cn1 (stereo not shown) [Example 30] | 42 ± 7 nM
O=C(N[C@H]1C[C@@H]1c1c[nH]cn1)[C@@H]1CC2CCCCC2N1 (stereo partly drawn) [Example 14, (2R,3R)-trans-(7-azabicyclo[43.0]non-(S)-8-yl)-N-(2-imidazol-4-ylcyclopropyl)formamide] | 8.5 ± 0.7 nM
C(=CC1CC1c1c[nH]cn1)CCC1CCCCC1 [Example 23, (1R,2R)-trans-4-(2-(4-cyclohexylbut-cis-1-enyl)cyclopropyl)imidazole] | 6.2 ± 0.8 nM
O=C(NCCCC1CCCCC1)[C@@H]1C[C@H]1c1c[nH]cn1 (relative stereo) [Example 29, N-[3-cyclohexylpropyl]-3(R)-[1H-imidazoyl-4-yl]-2(R)-cyclopropanamide and N-[3-Cyclohexylpropyl]-3(S)-[1H-imidazoyl-4-yl]-2(R)-cyclopropanamide] | 36 ± 8 nM
O=C(NCc1ccccc1)[C@@H]1C[C@H]1c1c[nH]cn1 (relative stereo) [Example 1, N-(1-Benzyl)-3-[(1H-imidazol-4-yl)]-(2R,3R)-trans-cyclopropanamide and N-(1-Benzyl)-3-[(1H-imidazol-4-yl)]-(2S,3S)-trans-cyclopropanamide hydrochloride] | 53 ± 2 nM
C[C@@H](NC(=O)C1CC1c1c[nH]cn1)C1CCCCC1 (mixture of isomers) [Example 6, N-[(R)-1-Cyclohexylethyl]-3-(1H-imidazol-4-yl)-trans-(2R,3R)-cyclopropanamide and N-[(R)-1-Cyclohexylethyl]-3-(1H-imidazol-4-yl)-trans-(2S,3S)-cyclopropanamide hydrochloride] | 70 ± 8.6 nM
NC(C=CC1CC1c1c[nH]cn1)CC1CCCCC1 [Example 21, 1(R)-[1H-imidazol-4-yl]-2(R)-cyclopropyl-5-(S)-amino-6-cyclohexyl-3-cis-hexene] | 97.7 ± 28 nM
O=C(NCC(O)CC1CCCCC1)[C@@H]1C[C@H]1c1c[nH]cn1 (relative stereo) [Example 36, (±)-trans-N-(3-cyclohexyl-2-(±)-hydroxypropyl)(2-imidazol-4-ylcyclopropyl)formamide] | 145 nM

Structure (SMILES) | Ki
O=C(NCC1CC1)[C@@H]1C[C@H]1c1c[nH]cn1 (relative stereo) [Example 32, (±)-trans-N-(cyclopropylmethyl)(2-imidazol-4-ylcyclopropyl)formamide] | 876 ± 158 nM
O=C(NCCCCC1CCCCC1)[C@@H]1C[C@H]1c1c[nH]cn1 (relative stereo) [Example 37, (±)-trans-N-(4-cyclohexylbutyl)(2-imidazol-4-ylcyclopropyl)formamide] | 68 nM
O=C(NCCc1ccccc1)[C@@H]1C[C@H]1c1c[nH]cn1 (relative stereo) [Example 9, (±)-trans-(2-imidazol-4-ylcyclopropyl)-N-(2-phenylethyl)formamide] | 163 ± 19 nM
O=C(N[C@@H]1C[C@H]1c1c[nH]cn1)OCc1ccccc1 (relative stereo) [Example 26, (±)-trans-N-(2-imidazol-4ylcyclopropyl)(phenylmethoxy)formamide] | 5.8 ± 0.4 nM
O=C(NCCc1c[nH]c2ccccc12)[C@@H]1C[C@H]1c1c[nH]cn1 (relative stereo) [Example 35, (±)-trans-(2-imidazol-4-ylcyclopropyl)-N-(2-indol-3-ylethyl)formamide] | 44 ± 73 nM
O=C(NCC12CC3CC(CC(C3)C1)C2)[C@@H]1C[C@H]1c1c[nH]cn1 (relative stereo) [Example 8, N-[1-Adamantylmethyl]-3-(1H-imidazol-4-yl)-trans-(2R,3R)-cyclopropanamide hydrochloride and N-[1-Adamantylmethyl]-3-(1H-imidazol-4-yl)-trans-(2S,3S)-cyclopropanamide hydrochloride] | 55 ± 6 nM
NC(CC1CCCCC1)C(=O)NC1CC1c1c[nH]cn1 [Example 13, (1S,2S)-trans-2(S)-amino-3-cyclohexyl-N-(2-imidazol-4-ylcyclopropyl)propanamide] | 21.5 ± 1.8 nM
O=C(NCC1CCCCC1)[C@@H]1C[C@H]1c1c[nH]cn1 [Example 2b] | 176 ± 9 nM
O=C(N[C@@H]1C[C@H]1c1c[nH]cn1)[C@@H]1CC2CCCCC2N1 (stereo partly shown) [Example 15] | 37 ± 4 nM
CC1CCCCN1CCCNC(=O)[C@@H]1C[C@H]1c1c[nH]cn1 (relative stereo) [Example 3, (±)-trans-(2-imidazol-4-ylcyclopropyl)-N-(3-((±)-2-methylpiperidyl)formamide] | 659 ± 52 nM
NC(C=CC1CC1c1c[nH]cn1)CC1CCCCC1 [Example 20, (1R,2R)-trans-1-cyclohexyl-4-(2-imidazol-4-ylcyclopropyl)but-trans-3-en-2(S)-ylamine] | 0.37 ± 0.2 nM
CN(CC1CCCCC1)C(=O)[C@@H]1C[C@H]1c1c[nH]cn1 (racemic) [Example 11, (±)-trans-N-(cyclohexylmethyl)(2-imidazol-4-ylcyclopropyl)-N-methylformamide] | 134 ± 13 nM
O=C(CCCC1CCCCC1)[C@@H]1C[C@H]1c1c[nH]cn1 (racemic) [Example 10, (±)-trans-4-cyclohexyl-1-(2-imidazol-4-ylcyclopropyl)butan-1-one] | 97 ± 21 nM
C[C@H](NC(=O)C1CC1c1c[nH]cn1)C1CCCCC1 (mixture of isomers) [Example 7, N-[(S)-1-Cyclohexylethyl]-3-(1H-imidazol-4-yl)-trans-(2R,3R)-cyclopropanamide and N-[(S)-1-Cyclohexylethyl]-3-(1H-imidazol-4-yl)-trans-(2S,3S)-cyclopropanamide hydrochloride] | 146 ± 13 nM
C(=CC1CC1c1c[nH]cn1)CCC1CCCCC1 [Example 22, (1R,2R)-trans--4-(2-(4-cyclohexylbut-trans-1-enyl)cyclopropyl)imidazole] | 2.4 ± 0.2 nM
OC(CCCC1CCCCC1)[C@@H]1C[C@H]1c1c[nH]cn1 (mixture of isomers) [Example 19, (±)-trans-4-cyclohexyl-1-(2-imidazol-4-ylcyclopropyl)butan-1-ol] | 160 ± 9 nM
O=C(NCC1CCCCC1)[C@@H]1C[C@H]1c1c[nH]cn1 (relative stereo) [Example 2, (±)-trans-N-(cyclohexylmethyl)(2-imidazol-4-ylcyclopropyl)formamide] | 37 ± 4 nM
NC(CC1CCCCC1)C(=O)NC1CC1c1c[nH]cn1 [Example 12, (1R,2R)-trans-2(S)-amino-3-cyclohexyl-N-(2-imidazol-4-ylcyclopropyl)propanamide] | 1.85 ± 0.5 nM
